From patent US20140056811A1, “NEW CELL-PENETRATING PEPTIDES AND USES THEREOF” (COMPUGEN LTD., priority 2010, published 2014)
Entries after “also recorded” stand apart in the source; their conditions may differ. Peptide text beside a SMILES is read from it. * marks the point of attachment. 5FAM = O=C1OC2(c3ccc(O)cc3Oc3cc(O)ccc32)c2ccc(C(=O)*)cc21; FAM = carboxyfluorescein

Key:
Format in all cases: cell-based
A549 cells = experiment: FACS binding analysis of CPP conjugated liposomes; conditions: FAM-CPP conjugated to hyaluronan coated liposomes, 30 minutes on ice
Experimental: Liposome preparation was carried out as described in Peer D., at al., 2008, Science 319, 627-630, Briefly, liposomes (60% soy-pc, 20% DPPE 20% cholesterol mol/mol) were prepared at a concentration of 40 mg/ml (Soy PC-273 mg, DPPE-81.2 mg Cholesterol-145.4 mg in 10 ml of ethanol). After a complete dissolvent, the solution was evaporated in a rotary evaporator (BUCHI R-210). Following the evaporation the dry lipid film was hydrated in 10 ml of HEPES (PH 7.4) and the solution was shaken (2 hr 65° C.). The MLV were reduced to ULV with an average size of ˜150 nm (Zetasizer Nano ZS system) by passing them through an extruder (Lipex) using filtration membranes in a serially manner ([…]). Average zeta potential of the ULV was −3 mV (Zetasizer Nano ZS system).
Hyaluronan (HA) (700 KDa Lifecore) was dissolved in 0.2M MES buffer (PH 5.5) to a final concentration of 5 mg/ml. HA was activate with EDC and solfo-NHS at a molar ratio of 1:1:6. After 30 min of activation the liposomes were added and the pH was adjusted to 7.4. The solution was incubated at room temp (2 hr). The free HA was removed by 3 repeated ultracentrifugations. The resulting HA-ULV's were at an average of 175 nm in size.
CPPs S22 (SEQ ID NO: 1), S24 (SEQ ID NO: 2) and S8 (SEQ ID NO: 6) and Control CPPs; 9R with additional C-terminal Lysine, 9R-K (SEQ ID NO: 40) and N2 (SEQ ID NO: 22), were dissolved to a concentration of 1 mg/ml. HA-ULV's (250 μl of 40 mg/ml) were activated with 1 ml of 0.4M EDC and 1 ml of 0.4 mM solfo-NHS. After 30 min the activated liposomes were divided into 5 test tubes (250 μl per each tube) and a different CPP (50 μl) was added. After incubation at RT for 2 hr, the CPP-HA-ULVS were dialyzed over night with PBS buffer (0.5 L/3 buffer changeovers) to remove unbound CPP, using dialysis bags with a cutoff 3500 Da.
For binding analysis, 3.5×10^5 cells were trypsinized, spin down, re-suspended with FACS buffer (1% fetal bovine serum in 1×PBS), incubated for 30 minutes on ice with different CPPs (Conjugated to FAM fluorophore) and washed with 1 ml FACS buffer.

HeLa cells [1] = experiment: Flow cytometry (FACS) quantification of cellular uptake of FAM labeled peptides; conditions: FAM labeled peptide, 10 uM, 37° C., 1 hour, average of a number of experiments
Experimental: To determine the efficiency of peptide loading, HeLa cells (ATCC number CCL-2TM (Manassas, Va.) grown in DMEM medium with stabilized glutamine supplemented with 10% fetal calf serum (Biological Industries, Beit Haemek, Israel), were seeded at a density of 20,000 per well in 96 U shape-well plates (Nunc A/S, Roskilde, Denmark) in serum containing DMEM (D-Mem W/O Na Pyr, product number 41965039).
After 24 hours, the cells were washed twice with 300 μL serum free OptiMEM (Reduced Serum Media, buffered with HEPES and sodium bicarbonate and supplemented with hypoxanthine, thymidine, sodium pyruvate, L-glutamine, trace elements and growth factors) medium and incubated in 50 μL serum free OptiMEM, containing peptides in the appropriate concentrations for 1 hour at 37° C. Each condition was tested in triplicates. After incubation, cells were washed with serum free medium, detached by trypsinization for 5 minutes, suspended in ice-cold PBS (phosphate buffered saline) containing 0.1% (w/v) BSA (bovine serum albumin), and measured immediately by flow cytometry (BD FACS Calibur System, Becton Dickinson, Heidelberg, Germany). The fluorescence of approximately 10,000 vital cells was acquired and gated based on sideward and forward scatter. Peptides used as positive controls were Tat(47-57) (SEQ ID NO:19; Jain M, et al., Cancer Res. 2005 Sep. 1; 65(17):7840-6), 9R (SEQ ID NO:21; Mueller J, et al., Bioconjug Chem. 2008 December; 19(12):2363-74) and penetratin (SEQ ID NO:20; Mueller J, et al., Bioconjug Chem. 2008 December; 19(12):2363-74). Negative control peptides N2 (SEQ ID NO:22) and N5 (SEQ ID NO:23) were designed according to Handbook [Cell-Penetrating Peptides, Second Edition, Edited by Ülo Langel, CRC Press 2007, Print ISBN: 978-0-8493-5090-0] and [US Patent Application 20080234183].

[2] = In vitro cytotoxicity by LDH (lactate dehydrogenase) analysis; conditions: human
Experimental: In order to assess the in vitro cytotoxicity of the peptides, an LDH (lactate dehydrogenase) analysis was carried out, using LDH kit (Promega G1782), according to manufacturer instructions.
Briefly, HeLa cells from 5 ml of confluent T75 flask were seed in 96 well plate at 10×10^4 cells/mL in 0.1 ml DMEM supplied with 10% Fetal Calf Serum. After 24 hrs incubation with growth medium, wells were replaced with Serum Free growth medium for 24 hrs, and then cells were washed with OptiMEM and replaced with 0.1 ml peptide solution at 10 uM for 1 h at 37° C. 50 ul of supernatant were transferred to the new plate and detected according to Cyto Tox 96, Non Radioactive cytotoxicity assay, (LDH kit Promega G1782). Table 5 presents the results of in vitro cytotoxicity measurements by LDH for S22, S24, S36 and S40 peptides and two positive control peptides; Tat(47-57) and R9. LDH experiment was done with fluorescent labeled (5-FAM) peptides in concentration of […] and the % of cytotoxicity was measured by LDH levels.

HeLa cells [3] = experiment: Confocal microscopy of peptide membrane penetration and cellular distribution; conditions: 5 uM, 37° C.
Experimental: To determine qualitative validation of peptide membrane penetration, HeLa cells from 5 ml of confluent T75 flask were seed in 12 well plate at 10×10^4 cells/mL in 0.5 ml DMEM supplied with 10% Fetal Calf Serum. […] DiD (DiD-[1,1′-Dioctadecyl-3,3,3′,3′-tetramethylindodicarbocyanine iodide] Lipophilic membrane tracer) (5 ug/ml) was added to each well and incubated for 5 min at 4° C., washed twice with cold PBS and fixed with 3.7% PFA 20′ RT. Cells were rinsed with PBS and mounted on slides for confocal microscopy analysis.

NRK cell line = experiment: Internalization assay of CPP conjugated liposomes by confocal microscopy; conditions: CPP conjugated to liposomes, 50 μl, 1 hour, 37° C.
Experimental: (§1) Internalization assay was performed in 24 well plates. A549 or NRK cells were seeded on cover slips in RPMI or DMEM medium respectively, supplemented with antibiotics, L-Glutamine and 10% fetal calf serum (Biological industries, Beit Haemek).
(§2) For membrane staining, cells were stained with CellTracker™ DilC18 (5)-DS solution (Invitrogen, Carlsbad, Calif., USA), diluted 1:5000 with PBS. For internalization experiments involve NPs Concanavalin A, Alexa fluor 647 conjugate (10 μg/ml) (C21421, Invitrogen,) was used to label cell membrane. For nuclei staining, cells were stained with Hoechst (1:10,000 in PBS) (33258, Sigma). Cells were exposed to CPPs only (10 μM) or CPP-liposome complex (50 μl from stock, according to preparation method) or liposome only (50 μl from the prepared liposomal stock solution) in medium without serum for a period of 1 hour at 37° C. in a humidified atmosphere with 5% CO2. Subsequently, the cells were washed twice using cold PBS, fixated with 4% Paraformaldehyde (PFA) and washed again with cold PBS. Membrane and nuclei staining were preformed after fixation. The cells were mounted by fluorescent mounting medium (Golden Bridge international, Mukilteo, Wash., USA) and fluorescent was measured using Andor Spinning disc confocal microscope and the Meta 510 Zeiss LSM confocal microscope. Laser beams at 405, 488, 561 and 650 nm were used for UV, FAM, Rhodamine, Concavaline A and CellTracker™, fluorophores excitation respectively. Serial optical sections of the cells were recorded for each treatment and the images were processed using Zeiss LSM Image browser software.

A549 cell line = experiment: as above; conditions: CPP conjugated to liposomes, 50 μl, 1 hour, 37° C.
Experimental: as §1, §2

Compound | binding to A549 cells (FACS) (A549 cells) | Geometric mean of FL1 intensity (HeLa cells [1]) | cytotoxicity at 1 h, 10 µM [2] [%] | accumulation of FAM labeled peptide inside the cell (confocal images) (HeLa cells [3]) | internalization into NRK cell line (confocal) (NRK cell line) | internalization into A549 cell line (confocal) (A549 cell line)
CC[C@H](C)[C@H](NC(=O)[C@H](CCCNC(=N)N)NC(=O)[C@H](CCCNC(=N)N)NC(=O)[C@H](CS)NC(=O)[C@@H](NC(=O)[C@H](CCCCN)NC(=O)[C@H](CCCCN)NC(=O)c1ccc2c(c1)C(=O)OC21c2ccc(O)cc2Oc2cc(O)ccc21)[C@@H](C)O)C(=O)N[C@@H](CC(N)=O)C(=O)N[C@@H](Cc1ccc(O)cc1)C(=O)N[C@@H](CS)C(=O)N[C@@H](C)C(=O)N[C@@H](CC(C)C)C(=O)N[C@@H](CC(N)=O)C(=O)N[C@@H](CCCCN)C(N)=O [S22, KKTCRRINYCALNK] (5FAM-KKTCRRINYCALNK-NH2; N-terminus and C-terminus assumed) | high binding levels | 206.4275 | 7 | strong cell membrane penetration capability; also recorded: efficient cellular uptake and intracellular accumulation | weak internalization; also recorded: better penetration into NRK in a comparison with peptide only | significant internalization effect
KKLALYLLLAL ({FAM}-KKLALYLLLAL-NH2) [S67] |  | 27.9 |  |  |  | 
KPSARMLLLKGFGK [S8] | lower binding effect | 52.29 |  |  | weak internalization | 
RRRRRRRRRK [9R-K, positive control, 9R with additional C-terminal Lysine, reference compound] | high binding levels |  |  |  |  | 
VATIKSVSFYTRK [N2, negative control peptide, reference compound] | lower binding effect |  |  |  |  | did not show internalization effect
